Test results published in paper PMC5347165, “Killing of Staphylococcus aureus and Salmonella enteritidis and neutralization of lipopolysaccharide by 17-residue bovine lactoferricins: improved activity of Trp/Ala-containing molecules” (Scientific Reports, 2017).
Where two headings read alike, the source gives them in different places.

Test system: S. aureus ATCC25923
Format: in vivo
Conditions: for reduction of bacterial burden in thigh: 10 h after treatment
Procedure: The thigh infection protocol was performed as previously described. Female BALB/c mice (6 weeks old, 22 ± 2 g) were rendered neutropenic (neutrophils, 100/mm^3) by intraperitoneal injection with 150 and 100 mg cyclophosphamide per kg of body weight for 4 d and 1 d before infection, respectively. Mice were inoculated with 100 μl of S. aureus ATCC25923 cells (1.0 × 10^7 CFU/ml) and given a single dose (0.2 ml) of Lfcin4 or Lfcin5 (10 or 15 mg/kg of body weight) or vancomycin (10 mg/kg of body weight) by tail vein injection at 2 h post-infection. Mice were humanely euthanized by cervical dislocation at 5 and 10 h after treatment. Thighs were removed and homogenized in sterile PBS for a CFU assay for S. aureus ATCC25923.

With “FKAWRWAWRMKKLAAPS [Lfcin4, 17-residue LfcinB17-31 derivative, Trp/Ala-containing]” the “reduction of bacterial burden in thigh” value (10 mg/kg single i.v. dose (Fig. 6A)) was 0.03 log10 CFU/g, the “reduction of bacterial burden in thigh” value (15 mg/kg single i.v. dose (Fig. 6A)) was 0.10 log10 CFU/g and the “S. aureus cells killed” value (10 h post-treatment, 15 mg/kg single i.v. dose) was 20.5%. The “greater reduction of viable bacteria in infected thighs compared to control mice” value (increasing doses from 10 to 15 mg/kg (discussion)) was 0.85 log10 CFU/g of tissue.
